Source: US8754089B2, “Heterocyclic compounds and their uses” (Amgen Inc., priority 2009, dated 2014)

What follows are compounds tested against PI3Kδ (Homo sapiens (Human), UniProt O00329) (assay: PI3Kδ Alphascreen assay).
Format: biochemical
Method: Full length p110 subunits of PI3k α, β and δ, N-terminally labeled with polyHis tag, were coexpressed with p85 with Baculo virus expression vectors in sf9 insect cells. P110/p85 heterodimers were purified by sequential Ni-NTA, Q-HP, Superdex-100 chromatography. Purified α, β and δ isozymes were stored at −20° C. in 20 mM Tris, pH 8, 0.2M NaCl, 50% glycerol, 5 mM DTT, 2 mM Na cholate. […] The y isozyme was purified by sequential Ni-NTA, Superdex-200, Q-HP chromatography. The γ isozyme was stored frozen at −80° C. in NaH2PO4, pH 8, 0.2M NaCl, 1% ethylene glycol, 2 mM β-mercaptoethanol.
A PI3K Alphascreen® assay (PerkinElmer, Waltham, Mass.) was used to measure the activity of a panel of four phosphoinositide 3-kinases: PI3Kα, PI3Kβ, PI3Kγ, and PI3Kδ. Enzyme reaction buffer was prepared using sterile water (Baxter, Deerfield, Ill.) and 50 mM Tris HCl pH 7, 14 mM MgCl2, 2 mM sodium cholate, and 100 mM NaCl. 2 mM DTT was added fresh the day of the experiment. The Alphascreen buffer was made using sterile water and 10 mM Tris HCl pH 7.5, 150 mM NaCl, 0.10% Tween 20, and 30 mM EDTA. 1 mM DTT was added fresh the day of the experiment. Compound source plates used for this assay were 384-well Greiner clear polypropylene plates containing test compounds at 5 mM and diluted 1:2 over 22 concentrations. Columns 23 and 24 contained only DMSO as these wells comprised the positive and negative controls, respectively. Source plates were replicated by transferring 0.5 uL per well into 384-well Optiplates (PerkinElmer, Waltham, Mass.).
Each PI3K isoform was diluted in enzyme reaction buffer to 2× working stocks. […] PI(4,5)P2 (Echelon Biosciences, Salt Lake City, Utah) was diluted to 10 μM and ATP was diluted to 20 μM. This 2× stock was used in the assays for PI3Kα and PI3Kβ. For assay of PI3Kγ and PI3Kδ, PI(4,5)P2 was diluted to 10 μM and ATP was diluted to 8 μM to prepare a similar 2× working stock. Alphascreen reaction solutions were made using beads from the anti-GST Alphascreen kit (PerkinElmer, Waltham, Mass.). Two 4× working stocks of the Alphascreen reagents were made in Alphascreen reaction buffer. In one stock, biotinylated-IP4 (Echelon Biosciences, Salt Lake City, Utah) was diluted to 40 nM and streptavadin-donor beads were diluted to 80 μg/mL. In the second stock, PIP3-binding protein (Echelon Biosciences, Salt Lake City, Utah) was diluted to 40 nM and anti-GST-acceptor beads were diluted to 80 μg/mL.
10 μL/well of the appropriate substrate 2× stock (containing 20 μM ATP for the PI3Kα and β assays and containing 8 μM ATP for the PI3Kγ and δ assays) was then added to Columns 1-24 of all plates. Plates were then incubated at room temperature for 20 minutes. In the dark, 10 μL/well of the donor bead solution was added to columns 1-24 of the plates to quench the enzyme reaction. The plates were incubated at room temperature for 30 minutes. Still in the dark, 10 μL/well of the acceptor bead solution was added to columns 1-24 of the plates. The plates were then incubated in the dark for 1.5 hours. The plates were read on an Envision multimode Plate Reader (PerkinElmer, Waltham, Mass.) using a 680 nm excitation filter and a 520-620 nm emission filter.

Sequence of PI3Kδ (O00329 whole entry): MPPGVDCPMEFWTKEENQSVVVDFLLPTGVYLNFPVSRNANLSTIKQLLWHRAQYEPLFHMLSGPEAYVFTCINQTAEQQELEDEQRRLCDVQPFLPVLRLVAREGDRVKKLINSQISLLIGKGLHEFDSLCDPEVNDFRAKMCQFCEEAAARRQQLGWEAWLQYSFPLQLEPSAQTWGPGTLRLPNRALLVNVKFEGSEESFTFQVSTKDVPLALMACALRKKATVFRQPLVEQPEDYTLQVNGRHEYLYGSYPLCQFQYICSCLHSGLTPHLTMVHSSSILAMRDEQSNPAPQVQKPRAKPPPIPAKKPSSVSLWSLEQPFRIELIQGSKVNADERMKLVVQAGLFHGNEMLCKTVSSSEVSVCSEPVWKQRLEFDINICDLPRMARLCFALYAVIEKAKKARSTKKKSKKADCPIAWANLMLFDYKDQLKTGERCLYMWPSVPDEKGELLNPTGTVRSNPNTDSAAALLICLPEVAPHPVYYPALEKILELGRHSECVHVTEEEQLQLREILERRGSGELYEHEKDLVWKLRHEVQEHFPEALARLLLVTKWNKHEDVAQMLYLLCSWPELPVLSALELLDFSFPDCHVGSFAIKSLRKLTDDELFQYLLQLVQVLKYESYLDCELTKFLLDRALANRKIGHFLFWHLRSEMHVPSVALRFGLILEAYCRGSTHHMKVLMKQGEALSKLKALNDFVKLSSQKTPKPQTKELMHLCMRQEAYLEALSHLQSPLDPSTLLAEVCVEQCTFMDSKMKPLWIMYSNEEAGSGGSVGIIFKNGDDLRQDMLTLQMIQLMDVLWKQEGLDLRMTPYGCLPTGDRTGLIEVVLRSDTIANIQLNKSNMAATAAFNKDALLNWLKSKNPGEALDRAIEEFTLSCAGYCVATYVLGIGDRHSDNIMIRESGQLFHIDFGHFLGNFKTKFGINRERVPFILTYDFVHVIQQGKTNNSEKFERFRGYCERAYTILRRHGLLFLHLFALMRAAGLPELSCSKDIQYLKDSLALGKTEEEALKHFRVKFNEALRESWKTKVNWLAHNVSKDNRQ
Sequence of PI3Kδ (P27986 whole entry partner): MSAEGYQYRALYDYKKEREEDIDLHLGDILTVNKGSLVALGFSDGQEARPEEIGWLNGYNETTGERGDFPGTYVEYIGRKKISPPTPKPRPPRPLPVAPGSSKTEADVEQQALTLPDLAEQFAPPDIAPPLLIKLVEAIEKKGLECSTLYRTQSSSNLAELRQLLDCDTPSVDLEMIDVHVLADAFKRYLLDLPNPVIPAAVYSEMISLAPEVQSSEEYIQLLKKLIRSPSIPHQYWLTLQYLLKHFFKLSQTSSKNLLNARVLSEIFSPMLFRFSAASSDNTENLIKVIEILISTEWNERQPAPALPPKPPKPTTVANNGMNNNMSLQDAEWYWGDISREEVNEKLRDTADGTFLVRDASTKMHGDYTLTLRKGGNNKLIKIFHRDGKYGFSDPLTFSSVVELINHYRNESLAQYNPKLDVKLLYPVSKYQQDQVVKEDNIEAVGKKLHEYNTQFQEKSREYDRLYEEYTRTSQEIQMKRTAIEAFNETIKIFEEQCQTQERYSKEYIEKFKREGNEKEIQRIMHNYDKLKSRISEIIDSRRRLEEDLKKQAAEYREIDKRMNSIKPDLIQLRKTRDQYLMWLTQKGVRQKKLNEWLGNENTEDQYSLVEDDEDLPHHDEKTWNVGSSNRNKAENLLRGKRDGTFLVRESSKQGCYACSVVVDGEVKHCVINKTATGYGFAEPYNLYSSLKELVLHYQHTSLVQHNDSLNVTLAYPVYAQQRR

Compound | Ki
Cc1cccc2nc(C(C)Nc3ncnc(N)c3C#N)c(-c3ccccc3)c(=O)n12 (racemic) [4-amino-6-((1-(6-methyl-4-oxo-3-phenyl-4H-pyrido[1,2-a]pyrimidin-2-yl)ethyl)amino)-5-pyrimidinecarbonitrile] | 0.0126 µM
Cc1cccc2nc(C(C)Nc3ncnc(N)c3C#N)c(-c3ccccn3)c(=O)n12 (racemic) [4-amino-6-((1-(6-methyl-4-oxo-3-(2-pyridinyl)-4H-pyrido-[1,2-a]pyrimidin-2-yl)ethyl)amino)-5-pyrimidinecarbonitrile] | 0.0108 µM
C[C@@H](Nc1ncnc(N)c1C#N)c1nc2ccccn2c(=O)c1-c1cc(F)cc(F)c1 [4-amino-6-(((1R)-1-(3-(3,5-difluorophenyl)-4-oxo-4H-pyrido[1,2-a]pyrimidin-2-yl)ethyl)amino)-5-pyrimidinecarbonitrile] | 320 µM
Cc1cccc2nc(Cn3nc(I)c4c(N)ncnc43)c(-c3cccc(F)c3)c(=O)n12 [2-((4-amino-3-iodo-1H-pyrazolo[3,4-d]pyrimidin-1-yl)methyl)-3-(3-fluorophenyl)-6-methyl-4H-pyrido[1,2-a]pyrimidin-4-one] | 0.0849 µM
CC(Nc1ncnc(N)c1C#N)c1nc2ccccn2c(=O)c1-c1ccccc1S(C)(=O)=O (racemic) [4-amino-6-((1-(3-(2-(methylsulfonyl)phenyl)-4-oxo-4H-pyrido[1,2-a]pyrimidin-2-yl)ethyl)amino)-5-pyrimidinecarbonitrile] | 0.0528 µM
Cc1cccc2nc(CNc3ncnc4[nH]cnc34)c(-c3cccc(F)c3)c(=O)n12 [3-(3-Fluorophenyl)-6-methyl-2-((9H-purin-6-ylamino)methyl)-4H-pyrido[1,2-a]pyrimidin-4-one] | 0.711 µM
Cc1cccc2nc([C@H](C)Nc3ncnc(N)c3C#N)c(-c3ccccc3)c(=O)n12 [4-amino-6-(((1S)-1-(6-methyl-4-oxo-3-phenyl-4H-pyrido[1,2-a]pyrimidin-2-yl)ethyl)amino)-5-pyrimidinecarbonitrile] | 0.005 µM
C[C@@H](Nc1ncnc(N)c1C#N)c1nc2ccccn2c(=O)c1-c1ccccc1S(C)(=O)=O [4-amino-6-(((1R)-1-(3-(2-(methylsulfonyl)phenyl)-4-oxo-4H-pyrido[1,2-a]pyrimidin-2-yl)ethyl)amino)-5-pyrimidinecarbonitrile] | 24.6 µM
Cc1cccc2nc([C@@H](C)Nc3ncnc(N)c3C#N)c(-c3ccccn3)c(=O)n12 [4-amino-6-(((1R)-1-(6-methyl-4-oxo-3-(2-pyridinyl)-4H-pyrido[1,2-a]pyrimidin-2-yl)ethyl)amino)-5-pyrimidine-carbonitrile] | 10.7 µM
Cc1cccc2nc([C@H](C)Nc3ncnc4[nH]cnc34)c(-c3cccc(F)c3)c(=O)n12 [3-(3-fluorophenyl)-6-methyl-2-((1S)-1-(9H-purin-6-ylamino)ethyl)-4H-pyrido[1,2-a]pyrimidin-4-one] | 0.0231 µM
C[C@H](Nc1ncnc(N)c1C#N)c1nc2ccccn2c(=O)c1-c1cc(F)cc(F)c1 [4-amino-6-(((1S)-1-(3-(3,5-difluorophenyl)-4-oxo-4H-pyrido[1,2-a]pyrimidin-2-yl)ethyl)amino)-5-pyrimidinecarbonitrile] | 0.0216 µM
CC(Nc1ncnc(N)c1C#N)c1nc2ccccn2c(=O)c1-c1cccc(F)c1 (racemic) [4-amino-6-((1-(3-(3-fluorophenyl)-4-oxo-4H-pyrido[1,2-a]pyrimidin-2-yl)ethyl)amino)-5-pyrimidinecarbonitrile] | 0.0571 µM
Cc1cccc2nc(C(C)Nc3ncnc(N)c3C#N)c(-c3ccccc3)c(=O)n12 (single isomer, unassigned) | 1.18 µM

Continued by falling Ki, values first:

Ki | Compound
9.71 µM | Cc1ccccc1-c1c(CSc2ncnc3[nH]cnc23)nc2cccc(C)n2c1=O [6-methyl-3-(2-methylphenyl)-2-((9H-purin-6-yl-sulfanyl)methyl)-4H-pyrido[1,2-a]pyrimidin-4-one]
9.27 µM | Cc1ccnc(-c2c([C@@H](C)Nc3ncnc(N)c3C#N)nc3ccccn3c2=O)c1 [4-amino-6-(((1R)-1-(3-(4-methyl-2-pyridinyl)-4-oxo-4H-pyrido[1,2-a]pyrimidin-2-yl)ethyl)amino)-5-pyrimidinecarbonitrile]
6.28 µM | Cc1ccccc1-c1c(Cn2cnc3c(N)ncnc32)nc2cccc(C)n2c1=O [2-((6-amino-9H-purin-9-yl)methyl)-6-methyl-3-(2-methylphenyl)-4H-pyrido[1,2-a]pyrimidin-4-one]
1.88 µM | C[C@@H](Nc1ncnc(N)c1C#N)c1nc2ccccn2c(=O)c1-c1cccc(F)c1 [4-Amino-6-(((1R)-1-(3-(3-fluorophenyl)-4-oxo-4H-pyrido[1,2-a]pyrimidin-2-yl)ethyl)amino)-5-pyrimidinecarbonitrile]
0.802 µM | Cc1cccc2nc([C@@H](C)Nc3ncnc4[nH]cnc34)c(-c3cccc(F)c3)c(=O)n12 [3-(3-fluorophenyl)-6-methyl-2-((1R)-1-(9H-purin-6-ylamino)ethyl)-4H-pyrido[1,2-a]pyrimidin-4-one]
0.585 µM | C[C@@H](Nc1ncnc(N)c1C#N)c1nc2ccccn2c(=O)c1-c1ccccn1 [4-amino-6-(((1R)-1-(4-oxo-3-(2-pyridinyl)-4H-pyrido[1,2-a]pyrimidin-2-yl)ethyl)amino)-5-pyrimidinecarbonitrile]
0.471 µM | Cc1ccnc(-c2c(C(C)Nc3ncnc(N)c3C#N)nc3ccccn3c2=O)c1 (racemic) [4-amino-6-((1-(3-(4-methyl-2-pyridinyl)-4-oxo-4H-pyrido[1,2-a]pyrimidin-2-yl)ethyl)amino)-5-pyrimidinecarbonitrile]
0.23 µM | Cc1ccnc(-c2c([C@H](C)Nc3ncnc(N)c3C#N)nc3ccccn3c2=O)c1 [4-amino-6-(((1S)-1-(3-(4-methyl-2-pyridinyl)-4-oxo-4H-pyrido[1,2-a]pyrimidin-2-yl)ethyl)amino)-5-pyrimidinecarbonitrile]
0.104 µM | CC(Nc1ncnc(N)c1C#N)c1nc2ccccn2c(=O)c1-c1ccccn1 (racemic) [4-amino-6-((1-(4-oxo-3-(2-pyridinyl)-4H-pyrido[1,2-a]pyrimidin-2-yl)ethyl)amino)-5-pyrimidinecarbonitrile]
0.089 µM | CC(Nc1ncnc(N)c1C#N)c1nc2ccccn2c(=O)c1-c1cc(F)cc(F)c1 (racemic) [4-Amino-6-((1-(3-(3,5-difluorophenyl)-4-oxo-4H-pyrido[1,2-a]pyrimidin-2-yl)ethyl)amino)-5-pyrimidinecarbonitrile]
0.0537 µM | C[C@H](Nc1ncnc(N)c1C#N)c1nc2ccccn2c(=O)c1-c1ccccc1S(C)(=O)=O [4-amino-6-(((1S)-1-(3-(2-(methylsulfonyl)phenyl)-4-oxo-4H-pyrido[1,2-a]pyrimidin-2-yl)ethyl)amino)-5-pyrimidinecarbonitrile]
0.0424 µM | C[C@H](Nc1ncnc(N)c1C#N)c1nc2ccccn2c(=O)c1-c1ccccn1 [4-amino-6-(((1S)-1-(4-oxo-3-(2-pyridinyl)-4H-pyrido[1,2-a]pyrimidin-2-yl)ethyl)amino)-5-pyrimidinecarbonitrile]
0.033 µM | CC(Nc1ncnc(N)c1C#N)c1c(-c2cc(F)cc(F)c2)c(=O)c2cc(F)ccc2n1C (centres unmarked) [4-amino-6-((1-(3-(3,5-difluorophenyl)-6-fluoro-1-methyl-4-oxo-1,4-dihydro-2-quinolinyl)ethyl)amino)-5-pyrimidinecarbonitrile]
0.0277 µM | Cc1cccc2nc(C(C)Nc3ncnc4[nH]cnc34)c(-c3cccc(F)c3)c(=O)n12 (racemic) [3-(3-fluorophenyl)-6-methyl-2-(1-(9H-purin-6-ylamino)ethyl)-4H-pyrido[1,2-a]pyrimidin-4-one]
0.0214 µM | Cc1cccc2nc([C@H](C)Nc3ncnc(N)c3C#N)c(-c3ccccn3)c(=O)n12 [4-amino-6-(((1S)-1-(6-methyl-4-oxo-3-(2-pyridinyl)-4H-pyrido[1,2-a]pyrimidin-2-yl)ethyl)amino)-5-pyrimidinecarbonitrile]
0.0157 µM | C[C@H](Nc1ncnc(N)c1C#N)c1nc2ccccn2c(=O)c1-c1cccc(F)c1 [4-amino-6-(((1S)-1-(3-(3-fluorophenyl)-4-oxo-4H-pyrido[1,2-a]pyrimidin-2-yl)ethyl)amino)-5-pyrimidinecarbonitrile]
